Laboratory results taken from patent publication US8273749B2, “N-substituted oxindoline derivatives as calcium channel blockers” (Merck Sharp & Dohme Corp., priority 2007, dated 2012).

Each compound was assayed against T1, N-type calcium channel (Cav2.2) (Homo sapiens, UniProt Q00975) (assay: Cav2.2 (N-type) calcium channel block: fluorescent potassium-depolarization assay and IonWorks / PatchXpress / manual patch clamp electrophysiology). Conditions: aforementioned assays (Assay Examples 1-3); which assay or condition is not specified; read-out: IC50 in antagonizing the N-type calcium channel.
T1 construct: expressed in transfected cells
T1 sequence (Q00975 whole entry): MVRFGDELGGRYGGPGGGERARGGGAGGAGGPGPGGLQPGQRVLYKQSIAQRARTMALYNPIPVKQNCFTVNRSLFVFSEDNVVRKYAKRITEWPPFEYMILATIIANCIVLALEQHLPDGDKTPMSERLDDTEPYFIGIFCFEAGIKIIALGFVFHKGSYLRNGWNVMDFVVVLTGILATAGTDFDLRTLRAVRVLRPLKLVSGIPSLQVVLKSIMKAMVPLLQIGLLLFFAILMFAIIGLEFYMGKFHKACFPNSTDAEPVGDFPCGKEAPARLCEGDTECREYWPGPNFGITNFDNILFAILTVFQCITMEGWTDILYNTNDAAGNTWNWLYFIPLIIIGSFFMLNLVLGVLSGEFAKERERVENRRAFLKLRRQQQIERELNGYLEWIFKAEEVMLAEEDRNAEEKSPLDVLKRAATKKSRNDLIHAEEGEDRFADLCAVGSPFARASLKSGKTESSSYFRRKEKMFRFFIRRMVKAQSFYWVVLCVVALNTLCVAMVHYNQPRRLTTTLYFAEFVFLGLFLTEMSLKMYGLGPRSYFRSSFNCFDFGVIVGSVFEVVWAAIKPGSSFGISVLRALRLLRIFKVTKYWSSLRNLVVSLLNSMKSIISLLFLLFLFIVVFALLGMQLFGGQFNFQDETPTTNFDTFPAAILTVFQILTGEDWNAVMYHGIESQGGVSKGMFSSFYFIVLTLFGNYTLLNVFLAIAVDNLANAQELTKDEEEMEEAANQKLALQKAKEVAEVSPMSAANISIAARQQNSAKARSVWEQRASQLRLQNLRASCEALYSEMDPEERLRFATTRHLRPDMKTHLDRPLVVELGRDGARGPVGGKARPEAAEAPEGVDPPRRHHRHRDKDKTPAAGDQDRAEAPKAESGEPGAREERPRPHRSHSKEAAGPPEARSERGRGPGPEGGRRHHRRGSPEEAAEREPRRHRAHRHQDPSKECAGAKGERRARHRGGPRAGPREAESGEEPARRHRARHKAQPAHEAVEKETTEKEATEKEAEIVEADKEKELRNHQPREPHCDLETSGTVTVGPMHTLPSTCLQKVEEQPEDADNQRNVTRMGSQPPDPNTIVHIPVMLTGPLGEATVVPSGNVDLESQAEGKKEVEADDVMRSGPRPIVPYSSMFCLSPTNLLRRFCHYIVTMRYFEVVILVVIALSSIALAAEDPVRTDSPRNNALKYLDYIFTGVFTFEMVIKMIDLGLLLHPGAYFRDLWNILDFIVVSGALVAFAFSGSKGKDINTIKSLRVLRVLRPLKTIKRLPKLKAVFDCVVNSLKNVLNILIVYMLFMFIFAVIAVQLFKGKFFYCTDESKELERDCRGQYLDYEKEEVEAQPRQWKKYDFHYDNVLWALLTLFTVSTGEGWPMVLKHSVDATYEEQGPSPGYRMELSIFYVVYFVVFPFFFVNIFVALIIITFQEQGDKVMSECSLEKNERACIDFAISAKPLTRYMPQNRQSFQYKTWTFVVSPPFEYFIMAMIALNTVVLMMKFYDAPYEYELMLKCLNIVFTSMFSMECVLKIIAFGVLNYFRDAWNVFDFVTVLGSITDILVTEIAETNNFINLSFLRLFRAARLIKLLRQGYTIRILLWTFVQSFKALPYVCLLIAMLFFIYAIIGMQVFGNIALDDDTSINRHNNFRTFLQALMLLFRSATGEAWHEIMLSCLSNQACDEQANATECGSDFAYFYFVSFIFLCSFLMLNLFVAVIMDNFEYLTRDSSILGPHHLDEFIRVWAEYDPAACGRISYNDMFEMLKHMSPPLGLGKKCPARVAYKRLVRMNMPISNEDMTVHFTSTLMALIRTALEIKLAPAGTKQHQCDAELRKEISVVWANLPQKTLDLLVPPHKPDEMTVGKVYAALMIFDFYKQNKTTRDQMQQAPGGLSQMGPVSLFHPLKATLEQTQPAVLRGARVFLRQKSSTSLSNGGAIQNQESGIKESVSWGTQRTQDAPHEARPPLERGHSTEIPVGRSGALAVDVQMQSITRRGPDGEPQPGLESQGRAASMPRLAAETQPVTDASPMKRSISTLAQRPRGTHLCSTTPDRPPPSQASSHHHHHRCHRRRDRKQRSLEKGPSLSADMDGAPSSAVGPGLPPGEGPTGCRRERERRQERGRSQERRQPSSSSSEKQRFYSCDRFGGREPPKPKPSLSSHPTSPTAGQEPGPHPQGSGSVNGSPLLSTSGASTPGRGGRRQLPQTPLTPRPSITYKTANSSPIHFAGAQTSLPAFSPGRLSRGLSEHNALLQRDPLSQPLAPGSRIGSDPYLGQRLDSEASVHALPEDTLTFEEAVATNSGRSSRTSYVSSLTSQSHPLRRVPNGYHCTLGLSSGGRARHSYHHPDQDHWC
Format: cell-based
Description: Human Cav2.2 channels were stably expressed in HEK293 cells along with alpha2-delta and beta subunits of voltage-gated calcium channels. An inwardly rectifying potassium channel (Kir2.3) was also expressed in these cells to allow more precise control of the cell membrane potential by extracellular potassium concentration. At low bath potassium concentration, the membrane potential is relatively negative, and is depolarized as the bath potassium concentration is raised. In this way, the bath potassium concentration can be used to regulate the voltage-dependent conformations of the channels. Compounds are incubated with cells in the presence of low (4 mM) potassium or elevated (12, 25 or 30 mM) potassium to determine the affinity for compound block of resting (closed) channels at 4 mM potassium or affinity for block of open and inactivated channels at 12, 25 or 30 mM potassium. After the incubation period, Cav2.2 channel opening is triggered by addition of higher concentration of potassium (70 mM final concentration) to further depolarize the cell. The degree of state-dependent block can be estimated from the inhibitory potency of compounds after incubation in different potassium concentrations.
Calcium influx through Cav2.2 channels is determined using a calcium-sensitive fluorescent dye in combination with a fluorescent plate reader. Fluorescent changes were measured with either a VIPR (Aurora Instruments) or FLIPR (Molecular Devices) plate reader.
• 1. Seed cells in Poly-D-Lysine Coated 96- or 384-well plate and keep in a 37° C.-10% CO2 incubator overnight • 2. […] Read cell plate on VIPR instrument, Excitation=480 nm, Emission=535 nm • 9. With VIPR continuously reading, add 0.1 mL (96-well plate) or 0.03 mL (384-well plate) of Depolarization Buffer, which is 2× the final assay concentration, to the cell plate. […]
Block of N-type calcium channels is evaluated utilizing the IonWorks HT 384 well automated patch clamp electrophysiology device. […]

| IC50 [nM] | Structure (SMILES) |
| --- | --- |
| 230 | CC1(Cc2cncnc2)C(=O)N(c2nc[nH]n2)c2ccc(-c3ccc(F)c(Cl)c3)cc21 (stereo not drawn) [Example 2, 5-(3-chloro-4-fluorophenyl)-3-methyl-3-(pyrimidin-5-ylmethyl)-1-(1H-1,2,4-triazol-3-yl)-1,3-dihydro-2H-indol-2-one] |
| 520 | CC1(Cc2cncnc2)C(=O)N(c2cnc(N)cn2)c2ccc(-c3ccc(F)c(Cl)c3)cc21 (stereo not drawn) [Example 10, 1-(5-aminopyrazin-2-yl)-5-(3-chloro-4-fluorophenyl)-3-methyl-3-(pyrimidin-5-ylmethyl)-1,3-dihydro-2H-indol-2-one] |
| 260 | Cn1cnc(N2C(=O)C(C)(Cc3cncnc3)c3cc(-c4cccc(OC(F)(F)F)c4)ccc32)c1 (stereo not drawn) [Example 18, 3-methyl-1-(1-methyl-1H-imidazol-4-yl)-3-pyrimidin-5-ylmethyl-5-(3-trifluoromethoxy-phenyl)-1,3-dihydro-indol-2-one] |
